The values that follow come from paper doi:10.64898/2025.12.31.697154v2, “Two phytohormones synergistically induce parasitic weeds seed germination via KAI2d receptors” (biorxiv, 2026).

In assay [1] the test system is T1, OmKAI2d10–OmSMAX1D1M.
T1 construct: gene KAI2d10; KAI2d10 plus SMAX1 D1M domain only; ligand-induced complex in TR-FRET; borders and tags not given
The experiment in a line: TR-FRET, ligand-induced KAI2d–SMAX1 D1M interaction. In kind it is biochemical, Orobanche minor. As to conditions: without rac-GR24; 300 min.

The subject of assay [2] is T2, OmKAI2d3–OmSMAX1D1M.
T2 construct: gene KAI2d3; KAI2d3 plus SMAX1 D1M domain only; ligand-induced complex in TR-FRET; borders and tags not given
The description is as above. In kind it is biochemical, Orobanche minor. The following applies: without rac-GR24; 300 min.

Assay [3] deals with T3, OmKAI2d9–OmSMAX1D1M.
T3 construct: gene KAI2d9; KAI2d9 plus SMAX1 D1M domain only; ligand-induced complex in TR-FRET; borders and tags not given
The assay is described as above. It is filed as biochemical, Orobanche minor. The following applies: without rac-GR24; 300 min.

The target of assay [4] is T4, OmKAI2d3.
T4 construct: gene KAI2d3; soluble recombinant protein
The experiment in a line: isothermal titration calorimetry. It is filed as binding, Orobanche minor. As to conditions: suggested allosteric site.

Each structure is given as a SMILES string.

For the molecule `CC/C=C\C[C@@H]1C(=O)C=C[C@@H]1CCCCCCCC(=O)O` [cis-OPDA], the EC50 was 104 µM in assay [1], 217 µM in assay [2] and 197 µM in assay [3]. This molecule showed a Kd in assay [4] of 19.8 µM.
